Patent US20140106387A1, “METHOD FOR CONTROLLING NAD(P)/NAD(P)H RATIO BY OXIDOREDUCTASE” (MD BIOALPHA CO., LTD., priority 2006, published 2014)

Experiments:
HepG2 cells = experiment: mitochondrial membrane potential (TMRE fluorescence) in HepG2 cells; type: cell-based, human; conditions: NQO1-proficient HepG2 cells
Description: For determination of the inner mitochondrial membrane potential (ΔΨm), 20 nM of TMRE (tetramethylrhodamine ethyl ester) as a fluorescent indicator was continuously applied to be loaded on cells. In order to monitor mitochondrial Ca^2+, cells on glass coverslips were loaded with 10 μM Rhod-2 AM via cold loading/warm incubation. In order to monitor cytosolic Ca^2+, cells were co-loaded with 10 μM Fluo-4 AM at 37′C for 30 min. The cells were washed twice with a KB solution, and mounted in a perfusion chamber. Fluorescent imaging was taken using a confocal laser scanning microscope (LSM-510 META, Carl Zeiss) at a magnification of ×200 and ×400, in conjunction with appropriate laser lines and a filter set. Image analysis was carried out using LSM-510 META software (Zeiss). Images for TMRE (red fluorescence), Rhod-2 (red fluorescence) and Fluo-4 (green fluorescence) were obtained using an inverted Zeiss 510META laser-scanning confocal microscope equipped with ×63 numerical aperture, 1.4 oil-immersion planapochromat lens. Green fluorescence and red fluorescence were illuminated with light of 488 nm and 543 nm. Incident light was passed through a 545 nm dichroic mirror and observed via a 500 to 530 nm band-pass (green) filter and a 560 nm long-pass (red) barrier filter.
However, such effects were not observed in HEK293 cells. […]

HEK293 cells = experiment: intracellular ATP, ADP and AMP levels by LC-MS in HEK293; type: cell-based, human; conditions: HEK293 cells having no NQO1 activity, 2 hours
Description: Samples were analyzed using an Agilent 1100 series LC/MSD system equipped with G1322A degasser, G1312A binary pump, G1315A photo-diode-array detector, 59987A electrospray interface and 5989B mass spectrometer. ES-MS analysis was performed using an Agilent 5989 electrospray (ES) mass spectrometer (MS) with an Agilent Atmospheric Pressure Ionization (API) interface fitted with a hexapole ion guide. Chromatogram was automatically integrated with the aid of Chemstation software, and concentrations were determined using a standard calibration curve.
Acid extraction was used for analysis of an AOPN concentration in the cells and liver tissues. 400 μl of 6% HClO4 was added to the cells cultured in a 100 mm dish, whereas a two-fold volume of 6% HClO4 was added to the liver tissues which were then immediately homogenized. Each mixture was centrifuged at 14,000 g and 4° C. for 10 min, and the resulting supernatants were neutralized by addition of 1 M borate buffer (pH 11) containing 4 mM EDTA in an amount of 75%. Samples were aliquoted and stored at a temperature of −80° C.
A mobile phase was 100 mM ammonium acetate:MeOH (98:2, v/v), and preparations were filtered through a 0.22-μm Millipore filter. A flow rate was set to 0.8 mL/min and detection was made at 254 nm. Separation was carried out using a ZORBAX Bonus-RP C18 column (3.5 μm, 4.6×150 mm I.D., Waters, USA). […]

[1] = Respiratory Quotient and indirect calorimetry; type: in vivo, mouse
Description: O2 consumption of animals was recorded by a known method. For indirect calorimetry, mice were individually housed in calorimetry chambers (Oxymax OPTO-M3 system; Columbus Instruments, Columbus, Ohio). Animals were allowed to acclimate to a new environment for 48 hours prior to the experiment, and amounts of O2 consumption and CO2 production were measured for […] every 30 minutes. Mice were given free access to food and drinking water during the first 24 h period, and animals were given access to drinking water only during the second 24 h period. Blood samples were taken from a heparinized tube, immediately placed on ice, centrifuged and stored at −20[…] for future use. Enzymatic colorimetry was employed for quantification of triglyceride (TG), total cholesterol, free fatty acids, and glucose (Beckman Instruments, CA). Plasma insulin (Linco Research, MO), TNFα (R&D System), adiponectin (Linco Research, MO), resistin (KOMED) and leptin (Linco Research, MO) were quantified by ELISA.
This Example was intended to examine effects of pyran-1,2-naphthoquinone on fat metabolism via measurement of Respiratory Quotient (RQ). Oxygen consumption and carbon dioxide production were measured using an Oxyscan open-circuit indirect calorimeter (AccuScan Instruments, Columbus, Ohio). This apparatus consisted of enclosed acrylic chambers (21×21×21 cm). Fresh air was drawn into each chamber at a rate of 1500 mL/min and then O2 and CO2 were allowed to pass through detectors. The concentrations of the gases were recorded in mL/kg body weight/min. RQ was calculated as the volume of CO2 produced (VCO2) divided by the volume of O2 consumed (VO2). A pyrano-1,2-naphthoquinone-administered group, a vehicle-administered group and a control group were placed in each apparatus, and RQ was measured for 7 hours. For acclimation of the animals to the new environment, mice were placed in the apparatus 2 hours prior to measurement.

## CC1(C)CCC2=C(O1)c1ccccc1C(=O)C2=O [βL, 2,2-Dimethyl-3,4-dihydro-2H-benzo[h]chromene-5,6-dione]
HepG2 cells
  decrease of TMRE fluorescence: about 20%
HEK293 cells
  intracellular ATP level: no significant changes in the intracellular ATP level
[1]; measured for 7 hours, vs vehicle-administered and control group
  Respiratory Quotient (RQ): significant difference in a RQ value
[1]; βL-treated mice
  oxygen consumption (indirect calorimetry): increases in night-time and day-time oxygen consumption
[1]; βL-treated mice vs control group
  energy consumption: higher energy consumption
